Assay results reported in article PMC9697826 (Pharmaceuticals, 2022).

Columns and labels:
colon cancer cells = system: colon cancer cells; design: method as in PMID 33088219; conditions: treatment with the FABP4 inhibitor; cited from earlier work
FABP4 = target: T1, FABP4 (Homo sapiens, UniProt P15090); assay: FABP4 Inhibitor/Ligand Screening Assay Kit: displacement of a fluorescent detection reagent; format: binding; conditions: displacement of detection reagent from FABP4; compounds diluted in PBS pH 7.4; fluorescence em 470 nm, ex 370 nm
T1 construct: purchased Cayman Chemical 10010231
T1 sequence (P15090 whole entry): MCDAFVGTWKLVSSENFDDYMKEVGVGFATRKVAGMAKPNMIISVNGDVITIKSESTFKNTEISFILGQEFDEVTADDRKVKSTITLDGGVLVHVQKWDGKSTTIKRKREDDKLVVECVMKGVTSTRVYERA
Description: FABP4 inhibitory activity was assessed by measuring the decrease in fluorescent signal of a detection reagent (DR) when displaced by a strong FABP4 ligand. […] Therefore, any effective ligand of the protein, which binds to the same binding pocket and can displace the DR, determines a reduction in the fluorescence read-out. The new molecular series was screened in a two-step procedure. Firstly, a single concentration of 5 µM was used to gain an estimation of the overall inhibitory effect of all the molecules.
To analyze the inhibitory activity of FABP4 ligands, a displacement assay was utilized as described by the Cayman’s instruction, FABP4 Inhibitor/Ligand Screening Assay Kit, Item 10,010,231 (see Supplementary Materials for additional details). The samples of compounds for activity determination were prepared as a stock solution (1 mM) in DMSO. On the day of activity assay, the compounds were all diluted in phosphate buffer solution (PBS, pH 7.4) to different concentrations (100, 50, 10, 5, 2, 1, and 0 µM). Appropriate concentrations of DMSO in PBS were used as control. The detection reagent (FABP Assay Detection Reagent, Item 10010376) was used as provided by the Cayman’s kit. The diluted Detection Reagent probe was mixed with FABP4 protein present in the kit and incubated for 10 min at room temperature. Compounds were then added and equilibrated for another 10 min. Lastly, the fluorescence signal was recorded at 470 nm (i.e., emission, with the excitation fixed at 370 nm) with a CytoFluor® Series 4000 Fluorescence Multi-Well Plate Reader.

Row | IC50 (FABP4) [µM] | melting point [°C] | SMILES | migration and invasion of colon cancer cells (colon cancer cells)
1 | – | – | CCc1c(-c2ccccc2)c(-c2ccccc2)nn1-c1ccccc1-c1cccc(OCC(=O)O)c1 [BMS309403] | weakened
2 | > 50 | 168 to 170 | CSc1nnc(-c2ccccc2)cc1N [Compound 27, 3-Methylsulfanyl-6-phenyl-pyridazin-4-ylamine] | –
3 | > 50 | 213 to 215 | CC(=O)N1CCN(C(=O)c2ccc(Nc3cc(-c4ccccc4)nn(C)c3=O)cc2)CC1 [Compound 35, 4-[4-(4-Acetyl-piperazine-1-carbonyl)-phenylamino]-2-methyl-6-phenylpyridazin-3(2H)-one] | –
4 | > 50 | 288 to 290 | Cc1cc(NC(N)=O)c(=O)n(-c2ccccc2)n1 [Compound 55, 1-(6-Methyl-3-oxo-2-phenyl-2,3-dihydropyridazin-4-yl)urea] | –
